Experimental data taken from patent publication US4419123A, “Herbicidal 4-trifluoromethyl-3'-carbon-substituted-4'-substituted diphenyl ethers” (Rohm and Haas Company, priority 1981, dated 1983).

Legend:
[1] = Preemergence herbicidal activity (% control) against monocot weeds; type: in vivo; settings: pre-emergence, 336 h, average, about two weeks after application, read-out: Herbicidal activity (% control), preemergence, monocots; for activity at 2241.7 g/ha: 2 lb./A.; for activity at 4483.4 g/ha: 4 lb./A.
Excerpt: (§1) barnyardgrass (Echinochloa crusgalli) crabgrass (Digitaria spp.) nutsedge (Cyperus esculentus)
(§2) At 2 and 4 pounds per acre:
(§3) **Bermudagrass (Cynodon dactylon)
(§4) *downy brome (Bromus tectorum) foxtail (Setaria faberii)
(§5) Johnsongrass (Sorghum halepense) […]
(§6) quackgrass (Agropyron repens)
(§7) *ryegrass (Lolium perenne)
(§8) *wild oats (Avena factua)
(§9) *yellow millet (Panicum miliaceum)
(§10) The following test procedure is employed.

[2] = Postemergence herbicidal activity (% control) against monocot weeds; type: in vivo; settings: post-emergence, 336 h, average, about two weeks after application, read-out: Herbicidal activity (% control), postemergence, monocots; for activity at 2241.7 g/ha: 2 lb./A.; for activity at 4483.4 g/ha: 4 lb./A.
Excerpt: as §1, §2, §3, §4, §5, §6, §7, §8, §9, §10

[3] = system: peanuts; experiment: Crop tolerance (selective herbicidal activity), peanuts; type: in vivo
Procedure: as §10
(§11) Following the general test procedure of Example 37, diphenyl ethers are evaluated for significant tolerance (as shown by 50% or less kill of the test crop at levels of application which give more than 50% kill of many or all of the weeds of Example 73) towards some or all of the following common agronomic crops (not all compounds tested against all crops): alfalfa, snapbeans, corn, cotton, cucumbers, peanuts, rape, rice, safflower, soybeans, tomatoes, and wheat.

[4] = system: rice; experiment: Crop tolerance (selective herbicidal activity), rice; type: in vivo
Procedure: as §10, §11

[5] = system: soybeans; experiment: Crop tolerance (selective herbicidal activity), soybeans; type: in vivo; settings: preemergence applications
Procedure: as §10, §11

[6] = system: wheat; experiment: Crop tolerance (selective herbicidal activity), wheat; type: in vivo
Procedure: as §10, §11

[7] = Preemergence herbicidal activity (% control) against dicot weeds; settings: pre-emergence, 336 h; for activity at 2241.7 g/ha: read-out: Herbicidal activity (% control), preemergence, dicots, 2 lb./A., average, about two weeks after application; for activity at 4483.4 g/ha: read-out: Herbicidal activity (% control), preemergence, dicots, 4 lb./A., average, about two weeks after application
[8] = Postemergence herbicidal activity (% control) against dicot weeds; settings: post-emergence, 336 h; for activity at 2241.7 g/ha: read-out: Herbicidal activity (% control), postemergence, dicots, 2 lb./A., average, about two weeks after application; for activity at 4483.4 g/ha: read-out: Herbicidal activity (% control), postemergence, dicots, 4 lb./A., average, about two weeks after application
[9] = system: corn; experiment: Crop tolerance (selective herbicidal activity), corn; type: in vivo
Procedure: as §10, §11

[10] = postemergence applications or applications on transplanted rice

With `O=C(O)c1cc(Oc2ccc(C(F)(F)F)cc2Cl)ccc1[N+](=O)[O-]` [Example 48, 2-Chloro-α,α,α-trifluoro-p-tolyl-3-carboxy-4-nitrophenylether] the activity at 2241.7 g/ha [1] was 100%, the activity at 4483.4 g/ha [1] was 99% and the activity at 2241.7 g/ha [2] was 84%. The activity at 4483.4 g/ha [2] was 75%, the Tolerance to peanuts ([3]; postemergence applications) was “Tolerance (significant tolerance (as shown by 50% or less kill of the test crop at levels of application which give more than 50% kill of many or all of the weeds of Example 73))” and the Tolerance to peanuts ([3]; preemergence applications) was “Tolerance (significant tolerance (as shown by 50% or less kill of the test crop at levels of application which give more than 50% kill of many or all of the weeds of Example 73))”. The Tolerance to rice [4, 10] was “Tolerance (significant tolerance (as shown by 50% or less kill of the test crop at levels of application which give more than 50% kill of many or all of the weeds of Example 73))”, the Tolerance to soybeans [5] was “Tolerance (significant tolerance (as shown by 50% or less kill of the test crop at levels of application which give more than 50% kill of many or all of the weeds of Example 73))” and the Tolerance to wheat ([6]; postemergence applications) was “Tolerance (significant tolerance (as shown by 50% or less kill of the test crop at levels of application which give more than 50% kill of many or all of the weeds of Example 73))”. It also gave an activity at 2241.7 g/ha [7] of 100%, an activity at 4483.4 g/ha [7] of 97% and an activity at 2241.7 g/ha [8] of 97%. It also gave an activity at 4483.4 g/ha [8] of 100%.

For `COC(=O)C(C)Oc1cc(Oc2ccc(C(F)(F)F)cc2Cl)ccc1[N+](=O)[O-]` (stereo not shown) [Example 50], the activity at 2241.7 g/ha [1] was 98%, the activity at 4483.4 g/ha [1] was 90% and the activity at 2241.7 g/ha [2] was 100%. The activity at 4483.4 g/ha [2] was 97%, the Tolerance to peanuts ([3]; preemergence applications) was “Tolerance (significant tolerance (as shown by 50% or less kill of the test crop at levels of application which give more than 50% kill of many or all of the weeds of Example 73))” and the Tolerance to soybeans [5] was “Tolerance (significant tolerance (as shown by 50% or less kill of the test crop at levels of application which give more than 50% kill of many or all of the weeds of Example 73))”. The Tolerance to wheat ([6]; preemergence applications) was “Tolerance (significant tolerance (as shown by 50% or less kill of the test crop at levels of application which give more than 50% kill of many or all of the weeds of Example 73))”, the activity at 2241.7 g/ha [7] was 100% and the activity at 4483.4 g/ha [7] was 83%. It also gave an activity at 4483.4 g/ha [8] of 100%.

Molecule `CNC(=O)C(C)Oc1cc(Oc2ccc(C(F)(F)F)cc2Cl)ccc1[N+](=O)[O-]` (stereo not shown) [Example 52] has an activity at 2241.7 g/ha [1] of 98%, an activity at 4483.4 g/ha [1] of 79% and an activity at 2241.7 g/ha [2] of 93%. For the same molecule, the activity at 4483.4 g/ha [2] was 87%, the Tolerance to corn ([9]; postemergence applications) was “Tolerance (significant tolerance (as shown by 50% or less kill of the test crop at levels of application which give more than 50% kill of many or all of the weeds of Example 73))” and the Tolerance to corn ([9]; preemergence applications) was “Tolerance (significant tolerance (as shown by 50% or less kill of the test crop at levels of application which give more than 50% kill of many or all of the weeds of Example 73))”. For the same molecule, the Tolerance to peanuts ([3]; preemergence applications) was “Tolerance (significant tolerance (as shown by 50% or less kill of the test crop at levels of application which give more than 50% kill of many or all of the weeds of Example 73))”, the Tolerance to rice ([4]; preemergence applications) was “Tolerance (significant tolerance (as shown by 50% or less kill of the test crop at levels of application which give more than 50% kill of many or all of the weeds of Example 73))” and the Tolerance to soybeans [5] was “Tolerance (significant tolerance (as shown by 50% or less kill of the test crop at levels of application which give more than 50% kill of many or all of the weeds of Example 73))”. For the same molecule, the activity at 2241.7 g/ha [7] was 75%, the activity at 4483.4 g/ha [7] was 67% and the activity at 2241.7 g/ha [8] was 100%. It also gave an activity at 4483.4 g/ha [8] of 100%.

With `Cc1cc(Oc2ccc(C(F)(F)F)cc2Cl)ccc1[N+](=O)[O-]` [Example 36] the activity at 2241.7 g/ha [1] was 100%, the activity at 4483.4 g/ha [1] was 93% and the activity at 2241.7 g/ha [2] was 94%. The activity at 4483.4 g/ha [2] was 87%, the Tolerance to corn ([9]; postemergence applications) was “Tolerance (significant tolerance (as shown by 50% or less kill of the test crop at levels of application which give more than 50% kill of many or all of the weeds of Example 73))” and the Tolerance to peanuts ([3]; postemergence applications) was “Tolerance (significant tolerance (as shown by 50% or less kill of the test crop at levels of application which give more than 50% kill of many or all of the weeds of Example 73))”. For the same molecule, the Tolerance to peanuts ([3]; preemergence applications) was “Tolerance (significant tolerance (as shown by 50% or less kill of the test crop at levels of application which give more than 50% kill of many or all of the weeds of Example 73))”, the Tolerance to wheat ([6]; postemergence applications) was “Tolerance (significant tolerance (as shown by 50% or less kill of the test crop at levels of application which give more than 50% kill of many or all of the weeds of Example 73))” and the activity at 4483.4 g/ha [7] was 100%. It also gave an activity at 2241.7 g/ha [8] of 98% and an activity at 4483.4 g/ha [8] of 100%.

For `CCOc1cc(Oc2c(Cl)cc(C(F)(F)F)cc2Cl)ccc1[N+](=O)[O-]` [Example 56, 2,6-Dichloro-α,α,α-trifluoro-p-tolyl-3-ethoxy-4-nitrophenyl ether], the activity at 2241.7 g/ha [1] was 100%, the activity at 4483.4 g/ha [1] was 91% and the activity at 2241.7 g/ha [2] was 100%. For the same molecule, the activity at 4483.4 g/ha [2] was 99%, the Tolerance to corn ([9]; postemergence applications) was “Tolerance (significant tolerance (as shown by 50% or less kill of the test crop at levels of application which give more than 50% kill of many or all of the weeds of Example 73))” and the Tolerance to peanuts ([3]; preemergence applications) was “Tolerance (significant tolerance (as shown by 50% or less kill of the test crop at levels of application which give more than 50% kill of many or all of the weeds of Example 73))”. For the same molecule, the Tolerance to wheat ([6]; preemergence applications) was “Tolerance (significant tolerance (as shown by 50% or less kill of the test crop at levels of application which give more than 50% kill of many or all of the weeds of Example 73))”, the activity at 4483.4 g/ha [7] was 83% and the activity at 2241.7 g/ha [8] was 99%. For the same molecule, the activity at 4483.4 g/ha [8] was 100%.

With `CC(Oc1cc(Oc2ccc(C(F)(F)F)cc2Cl)ccc1[N+](=O)[O-])C(=O)N(C)C` (stereo not shown) [Example 53] the activity at 2241.7 g/ha [1] was 98%, the activity at 4483.4 g/ha [1] was 98% and the activity at 2241.7 g/ha [2] was 81%. The activity at 4483.4 g/ha [2] was 79%, the Tolerance to corn ([9]; postemergence applications) was “Tolerance (significant tolerance (as shown by 50% or less kill of the test crop at levels of application which give more than 50% kill of many or all of the weeds of Example 73))” and the Tolerance to peanuts ([3]; postemergence applications) was “Tolerance (significant tolerance (as shown by 50% or less kill of the test crop at levels of application which give more than 50% kill of many or all of the weeds of Example 73))”. For the same molecule, the Tolerance to peanuts ([3]; preemergence applications) was “Tolerance (significant tolerance (as shown by 50% or less kill of the test crop at levels of application which give more than 50% kill of many or all of the weeds of Example 73))”, the Tolerance to rice [4, 10] was “Tolerance (significant tolerance (as shown by 50% or less kill of the test crop at levels of application which give more than 50% kill of many or all of the weeds of Example 73))” and the Tolerance to soybeans [5] was “Tolerance (significant tolerance (as shown by 50% or less kill of the test crop at levels of application which give more than 50% kill of many or all of the weeds of Example 73))”. The activity at 2241.7 g/ha [7] was 100%, the activity at 4483.4 g/ha [7] was 83% and the activity at 2241.7 g/ha [8] was 100%. For the same molecule, the activity at 4483.4 g/ha [8] was 100%.
